Experiment: Stability under stress conditions (alkaline, acidic, light, oxidizing medium)
Format: physicochemical
Conditions: light or hydrogen peroxide
Protocol: Both batches of carglumic acid tablets from Examples 1 and 2 are also evaluated for stability under stress conditions.
Principal degradation products are hydantoin-5-propionic acid (“5-HPA”) and diaza-1,3-dione-2,4-carboxy-7-cycloheptane. Among them, 5-HPA is toxic and thus it must be controlled below 0.1%. L-Pyroglutamic acid is another common impurity in the carglumic acid tablet.

## NC(=O)N[C@@H](CCC(=O)O)C(=O)O [Carglumic acid, (2S)-2-(carbamoylamino)pentanedioic acid]
  Degradation when exposed to light or an oxidizing medium: slowly degraded

From patent US10064826B2, “Direct compression and dry granulation processes for preparing carglumic acid tablets having less impurities than those produced by wet granulation process” (Navinta, LLC, priority 2013, dated 2018)
